Reference: US20260034146A1, “NEUROACTIVE 19-ALKOXY-17-S[…], PRODRUGS THEREOF, AND METHODS OF TREATMENT USING SAME” (priority 2012, published 2026)

Legend:
[1] = target: rat α1β2γ2L type GABAA receptors expressed in Xenopus laevis oocytes (Rattus norvegicus (Rat), UniProt P62813+P63138, INS375LLRMFSFK); experiment: Oocyte electrophysiology: potentiation of chloride currents mediated by 2 μM GABA, and direct gating; format: cell-based; details: ± SEM; for oocyte electrophysiology, ratio of currents in presence/absence of compound, 0.1 μM: 0.1 μM compound; for oocyte electrophysiology, ratio of currents in presence/absence of compound, 0.1 μM / oocyte electrophysiology, ratio of currents in presence/absence of compound, 1 μM / oocyte electrophysiology, ratio of currents in presence/absence of compound, 10 μM: 2 μM GABA control, N≥4 oocytes; for oocyte electrophysiology, ratio of currents in presence/absence of compound, 1 μM: 1 μM compound; for oocyte electrophysiology, ratio of currents in presence/absence of compound, 10 μM: 10 μM compound; for (gating) 10 μM, ratio of compound only current/2 μM GABA current: direct current gated by 10 μM compound in the absence of GABA, N≥4
Procedure: The compounds of the present disclosure were evaluated for the ability to potentiate chloride currents mediated by 2 μM GABA at rat α1β2γ2L type GABAA receptors expressed in Xenopus laevis oocytes and the results are shown in Table 2.
The GABA concentration used for the control response was 2 μM. Each compound was evaluated on at least four different oocytes at the concentrations indicated, and the results reported are the ratio of currents measured in the presence/absence of added compound. Gating represents direct current gated by 10 μM compound in the absence of GABA, and this current is reported as the ratio of compound only current/2 μM GABA current. Error limits are calculated as standard error of the mean (N≥4). Methods used are known in the art (see Jiang, X., et al.).

male beagle dogs = experiment: Dog duration of lateral recumbence, intravenous bolus; format: in vivo; details: dog dose 5 mg/kg
Procedure: The plasma pharmacokinetics and a qualitative assessment of sedation were obtained in male beagle dogs according to the following procedure. Dogs were dosed by intravenous bolus dose (60 seconds) via the cephalic vein at 5 mg/kg dose in an appropriate vehicle. In order to assess sedation, dogs were gently restrained for dose administration. If decreased muscle tone, limb weakness, or head drop was observed during dose administration, onset of lateral recumbence was recorded. […] Sluggish or incomplete righting to the sternal position qualifies as lateral recumbence. After onset of lateral recumbence, animals were assessed every 5 minutes in the same manner. The duration of lateral recumbence was recorded as the time interval between onset of lateral recumbence and the return to sternal position.

male Sprague Dawley rats = experiment: Rat loss of righting reflex (LRR), intravenous bolus; format: in vivo; details: rat dose 15 mg/kg
Procedure: The plasma pharmacokinetics and a qualitative assessment of sedation were obtained in male Sprague Dawley rats according to the following procedure. Rats were dosed by intravenous bolus dose (60 seconds) via the foot dorsal vein at doses ranging from 5 to 15 mg/kg in an appropriate vehicle. In order to assess sedation, rats were gently restrained by hand to a lateral position for dose administration. […] If the animal was unable to return to an upright position, the time was recorded as the onset of loss of righting reflex (LRR). […] Sluggish or incomplete righting twice consecutively within a 30 second interval qualifies as a loss of righting reflex. After onset of LRR, animals were assessed every 5 minutes in the same manner. Recovery of righting reflex is defined as the ability of a rat to right itself completely within 20 seconds of being placed in dorsal recumbency. The duration of LRR is defined as the time interval between LRR and the return of righting reflex.

[2] = target: picrotoxin binding site on GABAA receptors; experiment: [35S]-TBPS displacement (inhibition of [35S]-TBPS binding); details: duplicate experiments performed in triplicate; ± standard error of the mean
Procedure: The IC50 values for non-competitive displacers of [^35S]-TBPS from the picrotoxin binding site on GABAA receptors are reported in Table 1.
^aResults presented are from duplicate experiments performed in triplicate. Error limits are calculated as standard error of the mean. Methods used are known in the art (see Jiang, X., et al., Neurosteroid analogues. 9. Conformationally constrained pregnanes: structure-activity studies of 13,24-cyclo-18,21-dinorcholane analogues of the GABA modulatory and anesthetic steroids (3α,5α)- and […]. J. Med. Chem., 46: 5334-48 (2003)—the contents of which are hereby incorporated by reference in their entirety).

Tadpole = Tadpole loss of righting reflex (LRR) and loss of swimming reflex (LSR); format: in vivo; details: loss of swimming reflex; N=10 or more animals at each of five or more concentrations; ± SEM
Procedure: Table 3 discloses the anesthetic effects of the compounds of the present disclosure. In particular, the anesthetic effect of the compounds of the present disclosure on Loss of Righting Reflex (LRR) and Loss of Swimming Reflex (LSR).
Methods used are known in the art (see Jiang, X., et al.). Error limits are calculated as standard error of the mean (N=10 or more animals at each of five or more different concentrations).

COC[C@]12CC[C@@H](O)C[C@@H]1CC[C@H]1[C@@H]3CC[C@H]([N+](=O)[O-])[C@@]3(C)CC[C@@H]12 [29, MQ-97, (3α,5α,17β)-19-methoxy-17-nitroandrostan-3-ol]
oocyte electrophysiology, ratio of currents in presence/absence of compound, 0.1 μM [1]: 2.07 ± 0.09
oocyte electrophysiology, ratio of currents in presence/absence of compound, 1 μM [1]: 15.7 ± 1.45
oocyte electrophysiology, ratio of currents in presence/absence of compound, 10 μM [1]: 26.6 ± 4.34
(gating) 10 μM, ratio of compound only current/2 μM GABA current [1]: 0.11 ± 0.01
Duration of Dog Lateral Recumbence (male beagle dogs): C (C >20 min)
Duration of Rat LRR (male Sprague Dawley rats): B (B 10-20 min)
IC50 [2]: 37 ± 4 nM

COC[C@]12CC[C@@H](O)C[C@@H]1CC[C@H]1[C@@H]3CC[C@H](C(=O)CO)[C@@]3(C)CC[C@@H]12 [20, MQ-98, (3α,5α)-3,21-Dihydroxy-19-methoxypregnan-20-one]
oocyte electrophysiology, ratio of currents in presence/absence of compound, 0.1 μM [1]: 0.98 ± 0.01
oocyte electrophysiology, ratio of currents in presence/absence of compound, 1 μM [1]: 2.76 ± 0.27
oocyte electrophysiology, ratio of currents in presence/absence of compound, 10 μM [1]: 19.0 ± 2.31
(gating) 10 μM, ratio of compound only current/2 μM GABA current [1]: 0.09 ± 0.05
Duration of Rat LRR (male Sprague Dawley rats): A (A <10 min)
IC50 [2]: 345 ± 61 nM

COC[C@]12CC[C@@H](O)C[C@@H]1CC[C@@H]1[C@@H]2CC[C@]2(C)C(C#N)=CC[C@@H]12 [15, MQ-91, (3α,5α)-3-Hydroxy-19-methoxyandrost-16-ene-17-carbonitrile]
oocyte electrophysiology, ratio of currents in presence/absence of compound, 0.1 μM [1]: 1.27 ± 0.13
oocyte electrophysiology, ratio of currents in presence/absence of compound, 1 μM [1]: 5.34 ± 0.86
oocyte electrophysiology, ratio of currents in presence/absence of compound, 10 μM [1]: 25.6 ± 3.23
(gating) 10 μM, ratio of compound only current/2 μM GABA current [1]: 0.10 ± 0.09
IC50 [2]: 118 ± 13 nM

COC[C@]12CC[C@H](O)C[C@@H]1CC[C@H]1[C@@H]3CC[C@H](OC)[C@@]3(C)CC[C@@H]12 [31, MQ-96, (3β,5α,17β)-17,19-Dimethoxyandrostan-3-ol]
oocyte electrophysiology, ratio of currents in presence/absence of compound, 0.1 μM [1]: 0.91 ± 0.02
oocyte electrophysiology, ratio of currents in presence/absence of compound, 1 μM [1]: 0.97 ± 0.05
oocyte electrophysiology, ratio of currents in presence/absence of compound, 10 μM [1]: 1.10 ± 0.05
(gating) 10 μM, ratio of compound only current/2 μM GABA current [1]: 0.02 ± 0
IC50 [2]: 7800 nM

COC[C@]12CCC(O)CC1CC[C@@H]1[C@@H]2CC[C@]2(C)C(=O)CC[C@@H]12 (stereo in doubt) [30, MQ-94, (3α,5β)-3-Hydroxy-19-methoxyandrostan-17-one]
oocyte electrophysiology, ratio of currents in presence/absence of compound, 0.1 μM [1]: 0.90 ± 0.02
oocyte electrophysiology, ratio of currents in presence/absence of compound, 1 μM [1]: 0.88 ± 0.01
oocyte electrophysiology, ratio of currents in presence/absence of compound, 10 μM [1]: 0.84 ± 0.02
(gating) 10 μM, ratio of compound only current/2 μM GABA current [1]: 0.03
Tadpole LSR EC50 (μM) (Tadpole): None
IC50 [2]: > 30000 nM

COC[C@]12CC[C@@H](O)C[C@@H]1CC[C@@H]1[C@@H]2CC[C@@]2(C)[C@H]1CC[C@@]21CO1 [12, MQ-90, (3α,5α,17β)-19-Methoxyspiro[androstane-17,2′-oxiran]-3-ol]
oocyte electrophysiology, ratio of currents in presence/absence of compound, 0.1 μM [1]: 1.24 ± 0.05
oocyte electrophysiology, ratio of currents in presence/absence of compound, 1 μM [1]: 7.40 ± 1.43
oocyte electrophysiology, ratio of currents in presence/absence of compound, 10 μM [1]: 18.7 ± 6.19
(gating) 10 μM, ratio of compound only current/2 μM GABA current [1]: 0.14 ± 0.04
IC50 [2]: 79 ± 4 nM
